The values that follow come from patent US20230381321A1, “CAMPTOTHECIN CONJUGATES” (priority 2022, published 2023).

pIC50: −log10 of the molar value. Like-named read-outs stand apart in the source and are kept apart here.

Type in all cases: cell-based
The test system of assay [1] is pancreatic cancer cells (BxPC3). The experiment in a line: In vitro potency (CellTiter-Glo, 96 h) on BxPC3. Conditions: read-out: BxPC3 IC50. The essentials:
(§1)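 Cells authenticated by STR profiling and used within 2 months of resuscitation are seeded in RPMI 1640 containing 20% FBS for 24 hours; […] dilutions in medium are added and incubation runs 4 days before a luminescence read.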

In assay [2] the test system is anaplastic large cell lymphoma cells (DELBVR). The experiment in a line: In vitro potency (CellTiter-Glo, 96 h) on DELBVR. Conditions: read-out: DELBVR IC50. The essentials:
as §1
On the technique in general: In ATP-based viability assays light output follows the ATP content of the culture.

Assay [3] deals with anaplastic large cell lymphoma cells (DEL). The assay is described as follows: In vitro potency (CellTiter-Glo, 96 h) on DEL. Conditions: 96 h, read-out: DEL IC50. Summed up: as §1
Assay [4] relates to anaplastic large cell lymphoma cells (Karpas299). The experiment in a line: In vitro potency (CellTiter-Glo, 96 h) on Karpas299. Conditions: read-out: Karpas299 IC50. The essentials:
as §1

The subject of assay [5] is Hodgkin's lymphoma cells (L540cy). The experiment in a line: In vitro potency (CellTiter-Glo, 96 h) on L540cy. Conditions: read-out: L540cy IC50. The essentials: as §1
In another assay the test system is melanoma cells (A2058). The assay is described as follows: In vitro potency (CellTiter-Glo, 96 h) on A2058. Conditions: read-out: A2058 IC50. On the procedure:
(§2) In vitro potency was assessed on multiple cancer cell lines. All cell lines were authenticated by STR profiling at IDEXX Bioresearch and cultured for no more than 2 months after resuscitation. Cells cultured in log-phase growth were seeded for 24 hours in 96-well plates containing […] RPMI 1640 supplemented with 20% FBS. Serial dilutions of antibody-drug conjugates in cell culture media were prepared at 4x working concentrations, and 50 μL of each dilution was added to the 96-well plates. Following addition of test articles, cells were incubated with test articles for 4 days at […]. After 96 hours, growth inhibition was assessed by CellTiterGlo® (Promega, Madison, WI) and luminescence was measured on a plate reader.
(§3) Cell viability was determined by CellTiter-Glo staining after 96h exposure to ADC. ND=Not Determined. In the following tables, “Ex_” refers to a drug linker number. For example, “Ag4-Ex_4a” refers to a conjugate of an Ag4 antibody with drug linker 4a.

Assay [6] concerns acute myeloid leukemia cells (MOLM-13). The experiment in a line: In vitro potency (CellTiter-Glo, 96 h) on MOLM-13. Conditions: read-out: MOLM-13 IC50. The essentials:
as §1

The nature of assay [7]: In vitro potency (CellTiter-Glo, 96 h) on Ls174T. Conditions: read-out: Ls174T IC50. Summed up: as §1
The subject of assay [8] is non-small-cell lung cancer cells (Calu1). The assay is described as follows: In vitro potency (CellTiter-Glo, 96 h) on Calu1. Conditions: read-out: Calu1 IC50. On the procedure:
as §2, §3

Assay [9] deals with renal carcinoma cells (786-O). The assay is described as follows: In vitro potency (CellTiter-Glo, 96 h) on 786-O. Conditions: read-out: 786-O IC50. Summed up: as §1
In assay [10] the test system is breast cancer cells (MDA-MB-231). The experiment in a line: In vitro potency (CellTiter-Glo, 96 h) on MDA-MB-231. Conditions: read-out: MDAMB 231 IC50. Summed up: as §1
Assay [11] relates to B-lymphocyte cancer cells (SU-DHL4). The assay is described as follows: In vitro potency (CellTiter-Glo, 96 h) on SU-DHL4. Conditions: read-out: SU-DHL-4 IC50. The essentials: as §1
[12] abbreviates: Homo sapiens, BXPC-3, 96 h, CPT free drugs, CellTiter-Glo after 96 h exposure.
Where [13] appears, read: 96 h, CPT free drugs, CellTiter-Glo after 96 h exposure.
Where [14] appears, read: CPT free drugs, CellTiter-Glo after 96 h exposure.
[15] abbreviates: Homo sapiens, KARPAS-299, 96 h, CPT free drugs, CellTiter-Glo after 96 h exposure.
Where [16] appears, read: L540cy, 96 h, CPT free drugs, CellTiter-Glo after 96 h exposure.
The mark [17] stands for this setting: Homo sapiens, A2058, 96 h, CPT free drugs, CellTiter-Glo after 96 h exposure.
Setting [18] is: Homo sapiens, MOLM-13, 96 h, CPT free drugs, CellTiter-Glo after 96 h exposure.
The mark [19] stands for this setting: Homo sapiens, LS174T, CPT free drugs, CellTiter-Glo after 96 h exposure.
Where [20] appears, read: Homo sapiens, Calu-1, 96 h, CPT free drugs, CellTiter-Glo after 96 h exposure.
The mark [21] stands for this setting: Homo sapiens, 786-0, 96 h, CPT free drugs, CellTiter-Glo after 96 h exposure.
Setting [22] is: Homo sapiens, MDA-MB-231, 96 h, CPT free drugs, CellTiter-Glo after 96 h exposure.
Setting [23] is: Homo sapiens, SU-DHL-4, 96 h, CPT free drugs, CellTiter-Glo after 96 h exposure.

`CC[C@@]1(O)C(=O)OCc2c1cc1n(c2=O)Cc2c-1nc1ccc(SC)c(F)c1c2CN` [Compound 2au]: the negative-log IC50 (pIC50) was 8.22 in [1] (setting [12]); 9.00 in [2] (setting [13]); 9.00 in [3] (setting [14]); 8.30 in assay [4] (setting [15]); 9.00 in assay [5] (setting [16]); 8.52 with melanoma cells (A2058) (setting [17]). Further, the pIC50 in assay [6] (setting [18]) was 7.40; in assay [7] (setting [19]), 8.70; in [8] (setting [20]), 8.15; in assay [9] (setting [21]) it was 8.40; in assay [10] (setting [22]) it was 9.00; in assay [11] (setting [23]) it was 8.70.
For the compound `CC[C@@]1(O)C(=O)OCc2c1cc1n(c2=O)Cc2c-1nc1cc(F)c(C)c(C3=CCN(C(C)=O)CC3)c1c2CN` [Compound 6k], the pIC50 in assay [1] (setting [12]) is 7.02; in assay [2] (setting [13]), 7.96; in [3] (setting [14]), 8.15; in assay [4] (setting [15]) it was 7.40; in assay [5] (setting [16]), 7.80; in the assay on melanoma cells (A2058) (setting [17]) it was 7.77. The pIC50 in assay [6] (setting [18]) was 7.89; in assay [7] (setting [19]), 7.34; in assay [8] (setting [20]) it was 6.77; in assay [9] (setting [21]) it was 7.10; in assay [10] (setting [22]), 6.43; in assay [11] (setting [23]), 7.68.
On to `CC[C@@]1(O)C(=O)OCc2c1cc1n(c2=O)Cc2c-1nc1cc3c(cc1c2Cn1ccnc1)OCO3` [Compound 7ai], for which the pIC50 was 7.77 in assay [1] (setting [12]); 8.52 in assay [2] (setting [13]); 9.00 in [3] (setting [14]); 8.22 in [4] (setting [15]); 8.40 in assay [5] (setting [16]); 8.52 with melanoma cells (A2058) (setting [17]). Besides, the pIC50 in [6] (setting [18]) was 8.05; in assay [7] (setting [19]), 8.10; in assay [8] (setting [20]), 7.09; in assay [9] (setting [21]) it was 7.92; in assay [10] (setting [22]), 7.28; in assay [11] (setting [23]), 8.52.
As for `CC[C@@]1(O)C(=O)OCc2c1cc1n(c2=O)Cc2c-1nc1cc(F)c(C)c(-c3ccccc3)c1c2CN` [Compound 6j], the pIC50 is 7.52 in assay [1] (setting [12]); 8.30 in assay [2] (setting [13]); 8.40 in assay [3] (setting [14]); 8.05 in assay [4] (setting [15]); 8.05 in assay [5] (setting [16]); 8.00 with melanoma cells (A2058) (setting [17]). Moreover, the pIC50 was 7.82 in assay [6] (setting [18]); 7.92 in assay [7] (setting [19]); 7.44 in assay [8] (setting [20]); 7.92 in assay [9] (setting [21]); 6.99 in assay [10] (setting [22]); 7.85 in assay [11] (setting [23]).
Turning to `CC[C@@]1(O)C(=O)OCc2c1cc1n(c2=O)Cc2c-1nc1cc3c(cc1c2CN)C(C)CO3` (stereo partly drawn) [Compound 11, (5S)-14-(aminomethyl)-5-ethyl-5-hydroxy-18-methyl-7,20-dioxa-11,24 diazahexacyclo[11.11.0.02,11.04,9.015,23.017,21]tetracosa-1(24),2,4(9),13,15(23),16,21-heptaene-6,10-dione], the pIC50 in assay [1] (setting [12]) is 7.92; in [2] (setting [13]) it was 8.70; in assay [3] (setting [14]), 9.00; in [4] (setting [15]), 7.85; in assay [5] (setting [16]) it was 8.40; in the assay with melanoma cells (A2058) (setting [17]), 8.52. Besides, the negative logarithm of the IC50 (pIC50) in assay [6] (setting [14]) was 6.97; in assay [7] (setting [19]), below 6.00; in assay [8] (setting [20]), 7.16; in assay [9] (setting [21]) it was 8.10; in assay [10] (setting [14]), 7.39; in [11] (setting [23]), 8.40.
With `CC[C@@]1(O)C(=O)OCc2c1cc1n(c2=O)Cc2c-1nc1cc(F)c(C)c(-c3ccsc3)c1c2CN` [Compound 6g], the negative logarithm of the IC50 (pIC50) in assay [1] (setting [12]) was 8.15; in [2] (setting [13]), 9.00; in [3] (setting [14]) it was 9.00; in [4] (setting [15]), 8.40; in assay [5] (setting [16]), 8.40; with melanoma cells (A2058) (setting [17]), 8.40. In addition, the pIC50 in assay [6] (setting [18]) was 8.22; in [7] (setting [19]) it was 7.85; in [8] (setting [20]), 7.60; in assay [9] (setting [21]), 8.22; in assay [10] (setting [22]), 7.92; in assay [11] (setting [23]), 8.70.
Regarding `CC[C@@]1(O)C(=O)OCc2c1cc1n(c2=O)Cc2c-1nc1cc3c(cc1c2CNC(=O)OCc1ccc(NC(=O)[C@H](CCCCN)NC(=O)[C@@H](NC(=O)CCOCCOCCOCCOCCNC(=O)CCN2C(=O)C=CC2=O)C(C)C)cc1)CCO3` [Compound 14, [4-[[(2S)-6-amino-2-[[(2S)-2-[3-[2-[2-[2-[2-[3-(2,5-dioxopyrrol-1-yl)propanoylamino]ethoxy]ethoxy]ethoxy]ethoxy]propanoylamino]-3-methyl-butanoyl]amino]hexanoyl]amino]phenyl]methyl N-[[(5S)-5-ethyl-5-hydroxy-6,10-dioxo-7,20-dioxa-11,24-diazahexacyclo[11.11.0.02,11.04,9.015,23.017,21]tetracosa-1(13),2,4(9),14,16,21,23-heptaen-14-yl]methyl]carbamate;2,2,2-trifluoroacetic acid], the pIC50 in [1] (setting [14]) was 8.22; in assay [2] (setting [14]), 9.00; in [4] (setting [14]), 8.40; in assay [5] (setting [14]), 8.70; in the assay on melanoma cells (A2058) (setting [14]) it was 8.70; in [6] (setting [14]) it was 7.66. In addition, the pIC50 is 8.52 in assay [7] (setting [14]); 8.05 in assay [8] (setting [14]); 8.40 in [9] (setting [14]); 8.30 in assay [10] (setting [14]); 9.00 in [11] (setting [14]).
Regarding `CC[C@@]1(O)C(=O)OCc2c1cc1n(c2=O)Cc2c-1nc1cc(F)c(C)c(C#N)c1c2CN` [Compound 16], the pIC50 in [2] (96 h) is 9.00; in [3], 9.00; in assay [4] (Homo sapiens, KARPAS-299, 96 h), 8.15; in [5] (L540cy, 96 h) it was 8.30; in the assay with melanoma cells (A2058) (Homo sapiens, A2058, 96 h), 8.52; in assay [6] (Homo sapiens, MOLM-13, 96 h), 7.52. In addition, the pIC50 is 8.22 in assay [7] (Homo sapiens, LS174T, 96 h); 7.17 in assay [8] (Homo sapiens, Calu-1, 96 h); 8.10 in assay [9] (Homo sapiens, 786-0, 96 h); 7.42 in assay [10] (Homo sapiens, MDA-MB-231, 96 h); 8.52 in [11] (Homo sapiens, SU-DHL-4, 96 h).
Turning to `CC[C@@]1(O)C(=O)OCc2c1cc1n(c2=O)Cc2c-1nc1cc3c(c(Br)c1c2CN)OCO3` [Compound 5c], the pIC50 in assay [1] (Homo sapiens, BXPC-3, 96 h) is 8.10; in [3], 9.52; in assay [4] (Homo sapiens, KARPAS-299, 96 h) it was 9.00; in [5] (L540cy, 96 h), 9.10; in the assay with melanoma cells (A2058) (Homo sapiens, A2058, 96 h), 8.30; in [6] (Homo sapiens, MOLM-13, 96 h) it was 8.70. The pIC50 was 8.22 in assay [7] (Homo sapiens, LS174T, 96 h); 8.40 in [8] (Homo sapiens, Calu-1, 96 h); 9.00 in [9] (Homo sapiens, 786-0, 96 h); 8.70 in assay [10] (Homo sapiens, MDA-MB-231, 96 h); 9.30 in assay [11] (Homo sapiens, SU-DHL-4, 96 h).

For orientation: pIC50 means the negative decadic logarithm of the IC50, by convention in mol/L.
